Reference: the CheMixHub ionic liquid set
± gives the uncertainty stated by the source.

Test: xn = mol fraction of the nth substance listed
Settings: 100 kPa

C[NH2+]CCC=C1c2ccccc2CCc2ccccc21.[Cl-] + CCCCCC[n+]1ccn(C)c1.[Br-] + O
viscosity [mPa·s]
Settings | 288.15 K | 298.15 K | 308.15 K | 318.15 K
x1 = 0.0002039, x2 = 0.00126 | 1.185 ± 0.044 | 0.957 ± 0.043 | 0.792 ± 0.043 | 0.677 ± 0.043
x1 = 0.000208, x2 = 0.0001801 | 1.17 ± 0.044 | 0.938 ± 0.043 | 0.775 ± 0.043 | 0.658 ± 0.043
x1 = 0.0002218, x2 = 0.0007201 | 1.178 ± 0.044 | 0.948 ± 0.043 | 0.785 ± 0.043 | 0.658 ± 0.043
x1 = 0.0005639, x2 = 0.0001801 | 1.181 ± 0.044 | 0.948 ± 0.043 | 0.785 ± 0.043 | 0.667 ± 0.043
x1 = 0.0005652, x2 = 0.001259 | 1.196 ± 0.044 | 0.967 ± 0.043 | 0.802 ± 0.043 | 0.688 ± 0.043
x1 = 0.0005656, x2 = 0.0007199 | 1.189 ± 0.044 | 0.957 ± 0.043 | 0.794 ± 0.043 | 0.667 ± 0.043
x1 = 0.0009086, x2 = 0.0007196 | 1.201 ± 0.044 | 0.967 ± 0.043 | 0.803 ± 0.043 | 0.676 ± 0.043
x1 = 0.0009302, x2 = 0.00018 | 1.192 ± 0.044 | 0.958 ± 0.043 | 0.795 ± 0.043 | 0.676 ± 0.043
x1 = 0.0009557, x2 = 0.001259 | 1.208 ± 0.044 | 0.978 ± 0.043 | 0.812 ± 0.043 | 0.699 ± 0.043
x1 = 0.001281, x2 = 0.001258 | 1.22 ± 0.044 | 0.989 ± 0.043 | 0.822 ± 0.043 | 0.709 ± 0.043
x1 = 0.001285, x2 = 0.0001799 | 1.204 ± 0.044 | 0.969 ± 0.043 | 0.805 ± 0.043 | 0.685 ± 0.043
x1 = 0.001294, x2 = 0.0007194 | 1.213 ± 0.044 | 0.977 ± 0.043 | 0.812 ± 0.043 | 0.685 ± 0.043
x1 = 0.001641, x2 = 0.0001799 | 1.217 ± 0.044 | 0.98 ± 0.043 | 0.815 ± 0.043 | 0.694 ± 0.043
x1 = 0.001649, x2 = 0.0007191 | 1.226 ± 0.044 | 0.988 ± 0.043 | 0.821 ± 0.043 | 0.694 ± 0.043
x1 = 0.001666, x2 = 0.001258 | 1.233 ± 0.044 | 1.001 ± 0.043 | 0.832 ± 0.043 | 0.719 ± 0.043
x1 = 0.001985, x2 = 0.0001798 | 1.23 ± 0.044 | 0.991 ± 0.043 | 0.825 ± 0.043 | 0.703 ± 0.043
x1 = 0.002032, x2 = 0.0007188 | 1.239 ± 0.044 | 0.999 ± 0.043 | 0.831 ± 0.043 | 0.703 ± 0.043
x1 = 0.002034, x2 = 0.001257 | 1.246 ± 0.044 | 1.013 ± 0.043 | 0.843 ± 0.043 | 0.728 ± 0.043
x1 = 0.002348, x2 = 0.0001797 | 1.244 ± 0.044 | 1.002 ± 0.043 | 0.835 ± 0.043 | 0.712 ± 0.043
x1 = 0.002385, x2 = 0.0007186 | 1.253 ± 0.044 | 1.012 ± 0.043 | 0.842 ± 0.043 | 0.712 ± 0.043
x1 = 0.002389, x2 = 0.001257 | 1.26 ± 0.044 | 1.025 ± 0.043 | 0.854 ± 0.043 | 0.737 ± 0.043
x1 = 0.00272, x2 = 0.0001797 | 1.258 ± 0.044 | 1.014 ± 0.043 | 0.845 ± 0.043 | 0.721 ± 0.043
x1 = 0.002762, x2 = 0.0007183 | 1.267 ± 0.044 | 1.025 ± 0.043 | 0.854 ± 0.043 | 0.721 ± 0.043
x1 = 0.002776, x2 = 0.001256 | 1.275 ± 0.044 | 1.037 ± 0.043 | 0.865 ± 0.043 | 0.746 ± 0.043
x1 = 0.003079, x2 = 0.0001796 | 1.273 ± 0.044 | 1.026 ± 0.043 | 0.855 ± 0.043 | 0.73 ± 0.043
x1 = 0.003114, x2 = 0.000718 | 1.282 ± 0.044 | 1.037 ± 0.043 | 0.866 ± 0.043 | 0.731 ± 0.043
x1 = 0.003126, x2 = 0.001256 | 1.291 ± 0.044 | 1.049 ± 0.043 | 0.876 ± 0.043 | 0.755 ± 0.043
x1 = 0.003445, x2 = 0.0001796 | 1.288 ± 0.044 | 1.038 ± 0.043 | 0.865 ± 0.043 | 0.739 ± 0.043
x1 = 0.003472, x2 = 0.001255 | 1.307 ± 0.044 | 1.063 ± 0.043 | 0.888 ± 0.043 | 0.764 ± 0.043
x1 = 0.003507, x2 = 0.0007177 | 1.297 ± 0.044 | 1.05 ± 0.043 | 0.878 ± 0.043 | 0.741 ± 0.043
